This passage reports IC50 results from patent US11976083B2, “Inhibitors of peptidylarginine deiminases” (Gilead Sciences, Inc., priority 2020, dated 2024).

By IC50 is commonly meant the point on the concentration scale where inhibition reaches its midpoint.

In this experiment the target is T1, human PAD4 (Homo sapiens, UniProt Q9UM07).
T1 construct: human PAD4 (NM_012387), A2-P663, was PCR amplified; His-SUMO (N, cleaved yes); made in house; host or cells: E. coli BL21(DE3)
T1 sequence (Q9UM07 2-663): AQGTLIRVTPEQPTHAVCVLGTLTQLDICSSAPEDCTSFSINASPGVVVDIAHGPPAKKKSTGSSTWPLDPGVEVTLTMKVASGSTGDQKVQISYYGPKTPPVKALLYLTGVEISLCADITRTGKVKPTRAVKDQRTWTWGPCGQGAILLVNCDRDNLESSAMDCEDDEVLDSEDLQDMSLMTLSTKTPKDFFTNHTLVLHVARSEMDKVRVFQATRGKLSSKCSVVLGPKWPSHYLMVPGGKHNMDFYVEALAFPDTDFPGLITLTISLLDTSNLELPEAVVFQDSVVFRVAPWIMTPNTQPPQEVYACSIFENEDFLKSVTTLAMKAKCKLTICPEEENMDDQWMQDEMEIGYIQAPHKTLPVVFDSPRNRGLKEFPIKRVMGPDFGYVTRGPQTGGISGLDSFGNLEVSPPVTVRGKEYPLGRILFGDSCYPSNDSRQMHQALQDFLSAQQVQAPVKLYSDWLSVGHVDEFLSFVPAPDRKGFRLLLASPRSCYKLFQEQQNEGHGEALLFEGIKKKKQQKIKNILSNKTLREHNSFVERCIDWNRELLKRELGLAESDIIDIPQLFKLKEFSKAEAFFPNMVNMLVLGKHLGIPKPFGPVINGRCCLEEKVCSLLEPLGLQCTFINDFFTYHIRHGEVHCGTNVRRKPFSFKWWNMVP
The experiment can be described thus: In vitro PAD4 BAEE biochemical assay. Conditions: BAEE substrate 3 mM, 5 nM PAD4, 2 mM calcium chloride; geometric mean of multiple experiments. A digest of the protocol: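 Recombinant human PAD4 (5 nM final) with 2 mM CaCl2 was preincubated with compound 30 min at 25 °C in MOPS buffer pH 7.6, then reacted with 3 mM BAEE for 2 h at 25 °C. After EDTA stop, released ammonia was detected by o-phthalaldehyde/DTT fluorescence (ex 405/em 535 nm); IC50 from four-parameter fit, geometric mean.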
`C[C@H]1NC(=O)c2ccccc2CC[C@@H]2C[C@H]2Cn2c(-c3nc4cc(C(=O)N[C@H]5CNCC[C@@H]5F)c(F)cc4n3C3CC3)cc3ccc1nc32` [Example 348, 1-cyclopropyl-6-fluoro-~{N}-[(3~{S},4~{S})-4-fluoro-3-piperidyl]-2-[(3~{R},5~{R},16~{R})-16-methyl-14-oxo-1,15,24-triazapentacyclo[15.5.2.0^{3,5}.0^{8,13}.0^ {20,23}]tetracosa-8,10,12,17(24),18,20(23),21-heptaen-22-yl]benzimidazole-5-carboxamide]: the IC50 turned out to be 66 nM.
On to `C[C@H]1NC(=O)c2cnccc2CCCCCn2c(-c3nc4cc(C(=O)N[C@H]5CNCC[C@@H]5F)c(F)cc4n3C)cc3ccc1nc32` [Example 349, 6-fluoro-~{N}-[(3~{S},4~{S})-4-fluoro-3-piperidyl]-1-methyl-2-[(2~{R})-2-methyl-4-oxo-3,7,16,22-tetrazatetracyclo[14.5.2.0^{5,10}.0^{19,23}]tricosa-1(22),5,7,9,17,19(23),20-heptaen-17-yl]benzimidazole-5-carboxamide], for which the IC50 is 34 nM.
Turning to `C[C@H]1NC(=O)c2ccncc2CCCCCn2c(-c3nc4cc(C(=O)N[C@H]5CNCC[C@@H]5F)c(F)cc4n3C)cc3ccc1nc32` [Example 350, 6-fluoro-~{N}-[(3~{S},4~{S})-4-fluoro-3-piperidyl]-1-methyl-2-[(2~{R})-2-methyl-4-oxo-3,8,16,22-tetrazatetracyclo[14.5.2.0^{5,10}.0^{19,23}]tricosa-1(22),5,7,9,17,19(23),20-heptaen-17-yl]benzimidazole-5-carboxamide], the IC50 is 38 nM.
`C[C@H]1NC(=O)c2ccccc2CC[C@H]2C[C@@H]2Cn2c(-c3nc4cc(C(=O)N[C@H]5CNCC[C@@H]5F)c(F)cc4n3C)cc3ccc1nc32` [Example 351, 6-fluoro-~{N}-[(3~{S},4~{S})-4-fluoro-3-piperidyl]-1-methyl-2-[(3~{S},5~{S),16~{R})-16-methyl-14-oxo-1,15,24-triazapentacyclo[15.5.2.0^{3,5}.0^{8,13}.0^ {20,23}]tetracosa-8,10,12,17(24),18,20(23),21-heptaen-22-yl]benzimidazole-5-carboxamide]: the IC50 came to 97 nM.
Consider `C[C@H]1NC(=O)c2cccc(F)c2CCCCCn2c(-c3nc4cc(C(=O)N[C@H]5CNCC[C@@H]5F)c(F)cc4n3C)cc3ccc1nc32` [Example 352, 6-fluoro-2-[(2~{R})-9-fluoro-2-methyl-4-oxo-3,16,22-triazatetracyclo[14.5.2.0^{5,10).0^{19,23}]tricosa-1(22),5,7,9,17,19(23),20-heptaen-17-yl]-~{N}-[(3~{S),4~{S})-4-fluoro-3-piperidyl]-1-methyl-benzimidazole-5-carboxamide], for which the 50% inhibitory concentration (IC50) worked out at 53 nM.
The same measure for `C[C@H]1NC(=O)c2ccncc2CCCCCn2c(-c3nc4cc(C(=O)N[C@H]5CNCC[C@@H]5F)c(F)cc4n3C3CC3)cc3ccc1nc32` [Example 353, 1-cyclopropyl-6-fluoro-~{N}-[(3~{S},4~{S})-4-fluoro-3-piperidyl]-2-[(2~{R})-2-methyl-4-oxo-3,8,16,22-tetrazatetracyclo[14.5.2.0^{5,10}.0^{19,23}]tricosa-1(22),5,7,9,17,19(23),20-heptaen-17-yl]benzimidazole-5-carboxamide]: 29 nM; for `C[C@H]1NC(=O)c2c(Cl)cncc2CCCCCn2c(-c3nc4cc(C(=O)N[C@H]5CNCC[C@@H]5F)c(F)cc4n3C3CC3)cc3ccc1nc32` [Example 354, 2-[(2~{R})-6-chloro-2-methyl-4-oxo-3,8,16,22-tetrazatetracyclo[14.5.2.0^{5,10}.0^{19,23}]tricosa-1(22),5,7,9,17,19(23),20-heptaen-17-yl]-1-cyclopropyl-6-fluoro- ~{N}-[(3~{S},4~{S})-4-fluoro-3-piperidyl]benzimidazole-5-carboxamide]: 26 nM; for `C[C@H]1NC(=O)c2c(F)cncc2CCCCCn2c(-c3nc4cc(C(=O)N[C@H]5CNCC[C@@H]5F)c(F)cc4n3C3CC3)cc3ccc1nc32` [Example 355, 1-cyclopropyl-6-fluoro-2-[(2~{R})-6-fluoro-2-methyl-4-oxo-3,8,16,22-tetrazatetracyclo[14.5.2.0^{5,10}.0^{19,23}]tricosa-1(22),5,7,9,17,19(23),20-heptaen-17-yl]~{N}-[(3~{S},4~{S})-4-fluoro-3-piperidyl]benzimidazole-5-carboxamide]: 18 nM.
For `C[C@H]1NC(=O)c2cc(Cl)ncc2CCCCCn2c(-c3nc4cc(C(=O)N[C@H]5CNCC[C@@H]5F)c(F)cc4n3C3CC3)cc3ccc1nc32` [Example 356, 2-[(2~{R})-7-chloro-2-methyl-4-oxo-3,8,16,22-tetrazatetracyclo[14.5.2.0^{5,10).0^{19,23}]tricosa-1(22),5,7,9,17,19(23),20-heptaen-17-yl]-1-cyclopropyl-6-fluoro-~ {N}-[(3~{S},4~{S})-4-fluoro-3-piperidyl]benzimidazole-5-carboxamide] the value was 37 nM; for `C[C@H]1NC(=O)c2cnc(Cl)cc2CCCCCn2c(-c3nc4cc(C(=O)N[C@H]5CNCC[C@@H]5F)c(F)cc4n3C3CC3)cc3ccc1nc32` [Example 357, 2-[(2~{R})-8-chloro-2-methyl-4-oxo-3,7,16,22-tetrazatetracyclo[14.5.2.0^{5,10}.0^{19,23}]tricosa-1(22),5,7,9,17,19(23),20-heptaen-17-yl]-1-cyclopropyl-6-fluoro-~ {N}-[(3~{S},4~{S})-4-fluoro-3-piperidyl]benzimidazole-5-carboxamide], 31 nM; for `COc1cc(C(=O)N2CC[C@@H](OC)[C@@H](N)C2)cc2nc(-c3cc4ccc5nc4n3CCCCCc3cnccc3C(=O)N[C@@H]5C)n(C)c12` [Example 358, (2~{R})-17-[5-[(3~{S},4~{R})-3-amino-4-methoxy-piperidine-1-carbonyl]-7-methoxy-1-methyl-benzimidazol-2-yl]-2-methyl-3,8,16,22-tetrazatetracyclo[14.5.2.0^{5,10}.0^{19,23}] tricosa-1(22),5,7,9,17,19(23),20-heptaen-4-one], 83 nM.
`COc1cc(C(=O)N2CC[C@@H](OC)[C@@H](N)C2)cc2nc(-c3cc4ccc5nc4n3CCCCCc3cnc(Cl)cc3C(=O)N[C@@H]5C)n(C)c12` [Example 359, (2~{R})-17-[5-[(3~{S},4~{R})-3-amino-4-methoxy-piperidine-1-carbonyl]-7-methoxy-1-methyl-benzimidazol-2-yl]-7-chloro-2-methyl-3,8,16,22-tetrazatetracyclo[14.5.2.0^{5,10}.0^{19,23}] tricosa-1(22),5,7,9,17,19(23),20-heptaen-4-one]: the IC50 was 104 nM.
Turning to `COc1cc(C(=O)N2CC[C@@H](OC)[C@@H](N)C2)cc2nc(-c3cc4ccc5nc4n3CCCCCc3cccc(F)c3C(=O)N[C@@H]5C)n(C)c12` [Example 360, (2~{R})-17-[5-[(3~{S},4~{R})-3-amino-4-methoxy-piperidine-1-carbonyl]-7-methoxy-1-methyl-benzimidazol-2-yl]-6-fluoro-2-methyl-3,16,22-triazatetracyclo[14.5.2.0^{5,10}.0^{19,23}] tricosa-1(22),5,7,9,17,19(23),20-heptaen-4-one], the IC50 is 58 nM.
For the compound `COc1cc(C(=O)N2CCC[C@@H](N)C2)cc2nc(-c3cc4ccc5nc4n3CCCCCc3cccc(C)c3C(=O)N[C@@H]5C)n(C)c12` [Example 361, (2~{R})-17-[5-[(3~{R})-3-aminopiperidine-1-carbonyl]-7-methoxy-1-methyl-benzimidazol-2-yl]-2,6-dimethyl-3,16,22-triazatetracyclo[14.5.2.0^{5,10}.0^{19,23}] tricosa-1(22),5(10),6,8,17,19(23),20-heptaen-4-one], the IC50 is 74 nM.
Regarding `COc1cc(C(=O)N2CC[C@@H](OC)[C@@H](N)C2)cc2nc(-c3cc4ccc5nc4n3CCCCCc3cccc(C)c3C(=O)N[C@@H]5C)n(C)c12` [Example 362, (2~{R})-17-[5-[(3~{S},4~{R})-3-amino-4-methoxy-piperidine-1-carbonyl]-7-methoxy-1-methyl-benzimidazol-2-yl]-2,6-dimethyl-3,16,22-triazatetracyclo[14.5.2.0^{5,10}.0^{19,23}] tricosa-1(22),5(10),6,8,17,19(23),20-heptaen-4-one], the half-maximal inhibitory concentration (IC50) is 137 nM.
As to `COc1cc(C(=O)N[C@H]2CNCC[C@@H]2F)cc2nc(-c3cc4ccc5nc4n3CCCCCc3cccc(C)c3C(=O)N[C@@H]5C)n(C)c12` [Example 363, 2-[(2~{R})-2,6-dimethyl-4-oxo-3,16,22-triazatetracyclo[14.5.2.0^{5,10}.0^{19,23}]tricosa-1(22),5(10),6,8,17,19(23),20-heptaen-17-yl]-~{N}-[(3~{S},4~{S})-4-fluoro-3-piperidyl]-7-methoxy-1-methyl-benzimidazole-5-carboxamide], the IC50 is 110 nM.
For `COc1cc(C(=O)N2CC[C@@H](OC)[C@@H](N)C2)cc2nc(-c3cc4ccc5nc4n3C[C@H]3C[C@H]3CCCC(C)(C)C(=O)N[C@@H]5C)n(C)c12` [Example 366, (3~{S),5~{R},12~{R})-18-[5-[(3~{S},4~{R})-3-amino-4-methoxy-piperidine-1-carbonyl]-7-methoxy-1-methyl-benzimidazol-2-yl]-9,9,12-trimethyl-1,11,20-triazatetracyclo[11.5.2.0^{3,5}.0^{16,19}] icosa-13(20),14,16(19),17-tetraen-10-one], the IC50 stood at 120 nM.
For `COc1cc(C(=O)N[C@H]2CNCC[C@@H]2F)cc2nc(-c3cc4ccc5nc4n3C[C@H]3C[C@H]3CCCC(C)(C)C(=O)N[C@@H]5C)n(C)c12` [Example 367, ~{N}-[(3~{S},4~{S})-4-fluoro-3-piperidyl]-7-methoxy-1-methyl-2-[(3~{S},5~{R},12~{R})-9,9,12-trimethyl-10-oxo-1,11,20-triazatetracyclo[11.5.2.0^{3,5}.0^{16,19}]icosa-13(20),14,16(19),17-tetraen-18-yl]benzimidazole-5-carboxamide] the value was 82 nM.
